What all share (assay): Antibacterial activity (MIC), agar dilution
Format in all cases: cell-based
In general terms: Agar dilution tests growth on a series of plates holding different concentrations.

One assay concerns E. coli NIHJ JC-2. The conditions noted are these: Escherichia coli, NIHJJC2, 20 h. From the text: (§1) The amount of bacteria inoculated was 10^4 cells per plate (10^6 cells per ml).
Another assay concerns E. coli TK-111. The conditions noted are these: Escherichia coli, TK111, 20 h, E. coli TK-111; 10^6 cells per ml; 37° C., 20 hours; read-out: MIC.
From the text: as §1

In the next assay the test system is Ent. cloacae IID977. The conditions noted are these: Enterobacter cloacae, IID977, 20 h.
From the text: as §1

For the next assay, the system named is Kl. pneumoniae Y-41. Particulars: Klebsiella pneumoniae, Y41, 10^6 cells per ml, 37° C., 20 hours, read-out: MIC.
From the text: as §1

The subject of another assay is Kl. pneumoniae Y-50. The conditions noted are these: Klebsiella pneumoniae, Y50, 20 h, 10^6 cells per ml, 37° C., read-out: MIC.
From the text: as §1

The next assay relates to Pro. mirabilis T-111. The conditions noted are these: Proteus mirabilis, 37° C.
From the text: as §1

Another assay has as its system Pro. morganii T-216. Particulars: Morganella morganii, 37° C.
From the text: as §1

In the next assay the test system is Pro. vulgaris GN3027. Particulars: Proteus vulgaris, GN3027, 20 h, Pro. vulgaris GN3027; 10^6 cells per ml; 37° C., 20 hours; read-out: MIC.
From the text: as §1

A further assay concerns Ps. aeruginosa IFO3445. The conditions noted are these: Pseudomonas aeruginosa.
From the text: as §1

The test system of another assay is Ps. aeruginosa S-68. The conditions noted are these: Pseudomonas aeruginosa.
From the text: as §1

In another assay the test system is St. aureus FDA209P. Particulars: Staphylococcus aureus, FDA209P, 20 h, St. aureus FDA209P; 10^6 cells per ml; 37° C., 20 hours; read-out: MIC.
From the text: as §1

For another assay, the system named is E. coli TK-3*. The conditions noted are these: Escherichia coli, 20 h.
From the text: as §1
(§2) * Penicillinase-producing bacteria

The test system of the next assay is Kl. pneumoniae Y-4*. The conditions noted are these: Klebsiella pneumoniae, 20 h, Kl. pneumoniae Y-4, penicillinase-producing; 10^6 cells per ml; read-out: MIC.
From the text: as §1, §2

In another assay the test system is Ps. aeruginosa GN3379*. The conditions noted are these: Pseudomonas aeruginosa, Ps. aeruginosa GN3379, penicillinase-producing, 10^6 cells per ml.
From the text: as §1, §2

The subject of another assay is St. aureus F-137*. The conditions noted are these: Staphylococcus aureus, 20 h, St. aureus F-137, penicillinase-producing; 10^6 cells per ml; read-out: MIC.
From the text: as §1, §2

A further assay deals with E. coli GN5482**. The conditions noted are these: Escherichia coli, 20 h; E. coli GN5482, cephalospolinase-producing; 10^6 cells per ml; read-out: MIC.
From the text: as §1
(§3) ** Cephalospolinase-producing bacteria

Another assay has as its system Pro. vulgaris GN76**. Particulars: Proteus vulgaris, 20 h; Pro. vulgaris GN76, cephalospolinase-producing; 10^6 cells per ml; read-out: MIC.
From the text: as §1, §3

The subject of the next assay is Ps. aeruginosa GN918**. Particulars: Pseudomonas aeruginosa, 20 h; Ps. aeruginosa GN918, cephalospolinase-producing; 10^6 cells per ml; read-out: MIC.
From the text: as §1, §3

In the next assay the test system is Aci. antitratus A-6. The conditions noted are these: 20 h, Aci. antitratus A-6; 10^6 cells per ml; 37° C., 20 hours; read-out: MIC.
From the text: as §1

[1] abbreviates: E. coli NIHJ JC-2, 10^6 cells per ml, 37° C., 20 hours, read-out: MIC.
Setting [2] is: Ent. cloacae IID977, 10^6 cells per ml, 37° C., 20 hours, read-out: MIC.
Setting [3] is: T216, 10^6 cells per ml, 20 hours, read-out: MIC.
Setting [4] is: E. coli TK-3, penicillinase-producing, 10^6 cells per ml, read-out: MIC.

Values after ≈ are worked out from the molar mass of the structure shown. Where two headings read alike, the source gives them in different places. Some results are limits rather than exact numbers.

Here are results for five molecules from patent US4698352A, “4-oxo-1,4-dihydronicotinic acid derivatives, salts thereof, and antibacterial agents containing the same” (Toyama Chemical Co., Ltd., priority 1982, dated 1987).

Regarding `O=C(O)c1cn(-c2ccc(F)cc2)c(-c2cc3ccccc3s2)cc1=O`, the minimum inhibitory concentration (MIC) against E. coli NIHJ JC-2 was 3.13 µg/mL (≈ 8.57 µM); in the assay on E. coli TK-111 it was 0.78 µg/mL (≈ 2.13 µM); in the assay with Ent. cloacae IID977 it was 3.13 µg/mL (≈ 8.57 µM); in the assay on Kl. pneumoniae Y-41, 6.25 µg/mL (≈ 17.1 µM); in the assay on Kl. pneumoniae Y-50, 3.13 µg/mL (≈ 8.57 µM); in the assay with Pro. mirabilis T-111 (T111, 20 h, 10^6 cells per ml) it was 3.13 µg/mL (≈ 8.57 µM). In addition, the minimal inhibitory concentration (MIC) in the assay on Pro. morganii T-216 (T216, 20 h, 10^6 cells per ml) came to 3.13 µg/mL (≈ 8.57 µM); in the assay with Pro. vulgaris GN3027, 0.39 µg/mL (≈ 1.07 µM); in the assay with Ps. aeruginosa IFO3445 (IFO3445, 20 h), 12.5 µg/mL (≈ 34.2 µM); with Ps. aeruginosa S-68 (S68, 20 h), 6.25 µg/mL (≈ 17.1 µM); in the assay with St. aureus FDA209P, 0.78 µg/mL (≈ 2.13 µM); in the assay on E. coli TK-3*, 3.13 µg/mL (≈ 8.57 µM). Besides, the minimum inhibitory concentration (MIC) with Kl. pneumoniae Y-4* came out at 12.5 µg/mL (≈ 34.2 µM); in the assay on Ps. aeruginosa GN3379* (GN3379, 20 h), 12.5 µg/mL (≈ 34.2 µM); with St. aureus F-137*, 0.39 µg/mL (≈ 1.07 µM); with E. coli GN5482**, 0.39 µg/mL (≈ 1.07 µM); in the assay with Pro. vulgaris GN76**, 1.56 µg/mL (≈ 4.27 µM); with Ps. aeruginosa GN918**, 1.56 µg/mL (≈ 4.27 µM).

Regarding `Cc1cc(O)ccc1-n1cc(C(=O)O)c(=O)cc1-c1ccc(-c2cccs2)cc1`, the minimal inhibitory concentration (MIC) was 0.1 µg/mL (≈ 0.248 µM) with E. coli NIHJ JC-2 (setting [1]); no more than 0.05 µg/mL with E. coli TK-111; 0.39 µg/mL (≈ 0.967 µM) in the assay with Ent. cloacae IID977 (setting [2]); 0.78 µg/mL (≈ 1.93 µM) with Kl. pneumoniae Y-41; 0.39 µg/mL (≈ 0.967 µM) with Kl. pneumoniae Y-50; 0.39 µg/mL (≈ 0.967 µM) in the assay on Pro. mirabilis T-111 (T111, 10^6 cells per ml, 20 hours, read-out: MIC). The MIC with Pro. morganii T-216 (setting [3]) is 0.39 µg/mL (≈ 0.967 µM); with Pro. vulgaris GN3027, no more than 0.05 µg/mL; with Ps. aeruginosa IFO3445 (Ps. aeruginosa IFO3445, 10^6 cells per ml, 37° C., 20 hours, read-out: MIC) it was 6.25 µg/mL (≈ 15.5 µM); in the assay with Ps. aeruginosa S-68 (S68, Ps. aeruginosa S-68, 10^6 cells per ml, 37° C., 20 hours, read-out: MIC), 1.56 µg/mL (≈ 3.87 µM); in the assay on St. aureus FDA209P it was no more than 0.05 µg/mL; in the assay on E. coli TK-3* (setting [4]), 0.39 µg/mL (≈ 0.967 µM). Also, the MIC with Kl. pneumoniae Y-4* was 0.78 µg/mL (≈ 1.93 µM); in the assay with Ps. aeruginosa GN3379* (20 h, read-out: MIC), 3.13 µg/mL (≈ 7.76 µM); with St. aureus F-137*, no more than 0.05 µg/mL; in the assay with E. coli GN5482** it was no more than 0.05 µg/mL; in the assay on Pro. vulgaris GN76**, 0.2 µg/mL (≈ 0.496 µM); with Ps. aeruginosa GN918** it was 0.78 µg/mL (≈ 1.93 µM).

`O=C(O)c1cn(-c2ccc(O)cc2)c(-c2ccc3ccsc3c2)cc1=O`: the MIC with E. coli NIHJ JC-2 (setting [1]) was 0.2 µg/mL (≈ 0.55 µM); in the assay with E. coli TK-111 it was no more than 0.05 µg/mL; in the assay on Ent. cloacae IID977 (setting [2]) it was 0.39 µg/mL (≈ 1.07 µM); in the assay with Kl. pneumoniae Y-41, 0.78 µg/mL (≈ 2.15 µM); in the assay with Kl. pneumoniae Y-50, 0.39 µg/mL (≈ 1.07 µM); against Pro. mirabilis T-111 (T111, 20 h, 10^6 cells per ml) it was 1.56 µg/mL (≈ 4.29 µM). The MIC is 0.39 µg/mL (≈ 1.07 µM) in the assay on Pro. morganii T-216 (setting [3]); no more than 0.05 µg/mL in the assay on Pro. vulgaris GN3027; 1.56 µg/mL (≈ 4.29 µM) against Ps. aeruginosa IFO3445 (IFO3445, 20 h); 1.56 µg/mL (≈ 4.29 µM) in the assay on Ps. aeruginosa S-68 (S68, 20 h); 0.1 µg/mL (≈ 0.275 µM) in the assay with St. aureus FDA209P; 0.39 µg/mL (≈ 1.07 µM) with E. coli TK-3* (setting [4]). The minimum inhibitory concentration (MIC) with Kl. pneumoniae Y-4* was 1.56 µg/mL (≈ 4.29 µM); in the assay on Ps. aeruginosa GN3379* (20 h, read-out: MIC), 3.13 µg/mL (≈ 8.61 µM); with St. aureus F-137*, 0.1 µg/mL (≈ 0.275 µM); with E. coli GN5482** it was no more than 0.05 µg/mL; in the assay on Pro. vulgaris GN76**, 0.39 µg/mL (≈ 1.07 µM); with Ps. aeruginosa GN918** it was 0.78 µg/mL (≈ 2.15 µM).

For the molecule `CC(=O)Oc1ccc(-n2cc(C(=O)O)c(=O)cc2-c2cc3ccccc3o2)cc1`, the MIC was found to be 0.78 µg/mL (≈ 2 µM) in the assay with Aci. antitratus A-6; 1.56 µg/mL (≈ 4.01 µM) with E. coli NIHJ JC-2 (setting [1]); 0.78 µg/mL (≈ 2 µM) in the assay with E. coli TK-111; 3.13 µg/mL (≈ 8.04 µM) in the assay on Ent. cloacae IID977 (setting [2]); 6.25 µg/mL (≈ 16.1 µM) with Kl. pneumoniae Y-41; 0.78 µg/mL (≈ 2 µM) with Kl. pneumoniae Y-50. The MIC stood at 6.25 µg/mL (≈ 16.1 µM) in the assay with Pro. mirabilis T-111 (T111, 20 h, 10^6 cells per ml); 3.13 µg/mL (≈ 8.04 µM) in the assay with Pro. morganii T-216 (setting [3]); 0.39 µg/mL (≈ 1 µM) in the assay with Pro. vulgaris GN3027; 6.25 µg/mL (≈ 16.1 µM) in the assay with Ps. aeruginosa IFO3445 (IFO3445, 20 h); 6.25 µg/mL (≈ 16.1 µM) against Ps. aeruginosa S-68 (S68, 20 h); 0.39 µg/mL (≈ 1 µM) in the assay with St. aureus FDA209P. Besides, the minimum inhibitory concentration (MIC) with E. coli TK-3* (setting [4]) stood at 3.13 µg/mL (≈ 8.04 µM); with Kl. pneumoniae Y-4*, 12.5 µg/mL (≈ 32.1 µM); in the assay on Ps. aeruginosa GN3379* (GN3379, 20 h), 6.25 µg/mL (≈ 16.1 µM); with St. aureus F-137*, 0.39 µg/mL (≈ 1 µM); in the assay with E. coli GN5482**, 0.2 µg/mL (≈ 0.514 µM); in the assay with Pro. vulgaris GN76**, 1.56 µg/mL (≈ 4.01 µM).

Take `COc1ccc(-c2ccc(-c3cc(=O)c(C(=O)O)cn3-c3ccc(O)cc3)s2)cc1`: the minimal inhibitory concentration (MIC) stood at 0.39 µg/mL (≈ 0.93 µM) with Aci. antitratus A-6; 0.39 µg/mL (≈ 0.93 µM) with E. coli NIHJ JC-2 (setting [1]); 0.1 µg/mL (≈ 0.238 µM) in the assay on E. coli TK-111; 0.78 µg/mL (≈ 1.86 µM) in the assay on Ent. cloacae IID977 (setting [2]); 1.56 µg/mL (≈ 3.72 µM) in the assay on Kl. pneumoniae Y-41; 0.78 µg/mL (≈ 1.86 µM) in the assay with Kl. pneumoniae Y-50. Besides, the MIC was 1.56 µg/mL (≈ 3.72 µM) against Pro. mirabilis T-111 (T111, 20 h, 10^6 cells per ml); 0.78 µg/mL (≈ 1.86 µM) in the assay with Pro. morganii T-216 (setting [3]); 0.2 µg/mL (≈ 0.477 µM) in the assay on Pro. vulgaris GN3027; 3.13 µg/mL (≈ 7.46 µM) against Ps. aeruginosa IFO3445 (IFO3445, 20 h); 1.56 µg/mL (≈ 3.72 µM) in the assay with Ps. aeruginosa S-68 (S68, 20 h); 0.1 µg/mL (≈ 0.238 µM) in the assay on St. aureus FDA209P. For the same molecule, the minimal inhibitory concentration (MIC) with E. coli TK-3* (setting [4]) is 0.78 µg/mL (≈ 1.86 µM); in the assay with Kl. pneumoniae Y-4*, 3.13 µg/mL (≈ 7.46 µM); with Ps. aeruginosa GN3379* (20 h, read-out: MIC), 6.25 µg/mL (≈ 14.9 µM); in the assay with St. aureus F-137*, 0.1 µg/mL (≈ 0.238 µM); with E. coli GN5482** it was no more than 0.05 µg/mL; in the assay with Pro. vulgaris GN76** it was 0.39 µg/mL (≈ 0.93 µM).

Broadly, the MIC is the lowest concentration found to suppress growth.
